“Also recorded” adds a separate entry of the source.
Key:
AURKB = target: T1, AURKB (Homo sapiens, UniProt Q96GD4); test: BDP5290 target profiling (in vitro kinase assays, MIB/MS and MIB-bead selectivity profiling); assay type: binding
T1 construct: endogenous in cells; host or cells: OVCAR4 cells; OVSAHO and KURAMOCHI lysates
Procedure: (§1) Statistical kinases are identified using Students T-tests with FDR 0.05.
(§2) MIB-elutions were then analyzed by western blot.
(§3) Kinome elutions were then analyzed using LC-MS/MS and changes in kinase binding quantified using label free quantitation.
(§4) Lysates were then incubated with MIBs for 45 minutes at 4° C. (Medard et al., J. Proteome Res., 2015, 14, 1574-1586) and added to gravity flow columns. The MIB preparation protocol was subsequently followed excluding the reduction and alkylation steps. Following methanol/chloroform precipitation, the precipitated pellet was resuspended in 20 μL complete MIBs lysis buffer and 4 μL 6×LSB was added to each sample. Samples were boiled at 100° C. for 5 minutes and subjected to western blot analysis. For the selectivity assay analyzed via LC-MS/MS, 5 mg OVSAHO lysates were preincubated with the same drug concentrations and incubated with MIBs, and the MIB preparation protocol was followed.

MRCKA [1] = target: T2, MRCKA (Homo sapiens, UniProt Q5VT25); test: BDP5290 target profiling (in vitro kinase assays, MIB/MS proteomic analysis of drug binders); assay type: binding; set-up: endogenous in cells; host or cells: OVSAHO; settings: doses <5 μM
T2 sequence (Q5VT25 whole entry): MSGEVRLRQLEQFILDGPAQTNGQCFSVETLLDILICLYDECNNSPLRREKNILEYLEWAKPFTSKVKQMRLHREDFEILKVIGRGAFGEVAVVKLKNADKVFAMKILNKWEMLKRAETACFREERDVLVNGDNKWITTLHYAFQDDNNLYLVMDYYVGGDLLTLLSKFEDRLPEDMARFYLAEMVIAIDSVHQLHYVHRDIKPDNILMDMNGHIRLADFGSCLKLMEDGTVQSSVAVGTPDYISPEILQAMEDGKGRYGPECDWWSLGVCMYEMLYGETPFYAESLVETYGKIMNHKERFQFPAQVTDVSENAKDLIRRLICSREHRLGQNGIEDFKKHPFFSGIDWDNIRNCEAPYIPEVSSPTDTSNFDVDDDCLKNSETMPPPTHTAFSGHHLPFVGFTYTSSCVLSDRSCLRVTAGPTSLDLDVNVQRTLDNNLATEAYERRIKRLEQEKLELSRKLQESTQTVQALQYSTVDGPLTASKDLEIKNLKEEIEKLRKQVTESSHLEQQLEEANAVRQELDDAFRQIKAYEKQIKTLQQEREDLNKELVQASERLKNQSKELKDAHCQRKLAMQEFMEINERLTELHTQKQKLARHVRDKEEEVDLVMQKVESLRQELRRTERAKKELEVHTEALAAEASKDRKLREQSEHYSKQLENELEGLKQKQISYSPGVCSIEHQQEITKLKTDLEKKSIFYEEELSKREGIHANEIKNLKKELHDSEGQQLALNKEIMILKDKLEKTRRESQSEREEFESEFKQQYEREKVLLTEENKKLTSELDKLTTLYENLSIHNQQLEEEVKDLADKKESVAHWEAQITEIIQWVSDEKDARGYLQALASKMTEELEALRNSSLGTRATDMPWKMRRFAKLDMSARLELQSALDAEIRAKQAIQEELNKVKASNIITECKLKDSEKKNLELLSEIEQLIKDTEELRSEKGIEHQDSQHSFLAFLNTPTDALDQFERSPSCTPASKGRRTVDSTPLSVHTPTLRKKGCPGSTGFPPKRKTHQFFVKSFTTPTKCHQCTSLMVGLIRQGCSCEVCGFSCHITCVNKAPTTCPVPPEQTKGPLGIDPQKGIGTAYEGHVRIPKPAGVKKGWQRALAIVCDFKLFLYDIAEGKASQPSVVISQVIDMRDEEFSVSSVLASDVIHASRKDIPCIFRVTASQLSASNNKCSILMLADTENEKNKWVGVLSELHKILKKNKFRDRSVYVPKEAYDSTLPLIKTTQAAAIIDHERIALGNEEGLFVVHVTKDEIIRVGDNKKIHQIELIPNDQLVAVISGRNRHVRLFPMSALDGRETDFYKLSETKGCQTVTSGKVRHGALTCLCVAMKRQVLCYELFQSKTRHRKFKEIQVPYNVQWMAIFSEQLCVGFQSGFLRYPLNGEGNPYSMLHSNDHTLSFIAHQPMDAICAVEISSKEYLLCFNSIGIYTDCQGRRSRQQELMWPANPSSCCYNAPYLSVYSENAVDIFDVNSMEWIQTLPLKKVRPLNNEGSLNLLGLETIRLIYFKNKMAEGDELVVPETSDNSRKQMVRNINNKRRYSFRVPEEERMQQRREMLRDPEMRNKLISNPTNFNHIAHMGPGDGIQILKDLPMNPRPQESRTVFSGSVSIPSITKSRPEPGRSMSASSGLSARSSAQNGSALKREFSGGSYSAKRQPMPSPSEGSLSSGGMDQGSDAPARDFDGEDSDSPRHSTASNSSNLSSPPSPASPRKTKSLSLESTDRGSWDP
Procedure: PCA plot of MIB-determined SILAC ratios.
as §1, §4

MRCKB = target: T3, MRCKB (Homo sapiens, UniProt Q9Y5S2); test: BDP5290 target profiling (in vitro kinase assays, MIB/MS and MIB-bead selectivity profiling); assay type: binding
T3 construct: endogenous in cells; host or cells: OVSAHO
T3 sequence (Q9Y5S2 whole entry): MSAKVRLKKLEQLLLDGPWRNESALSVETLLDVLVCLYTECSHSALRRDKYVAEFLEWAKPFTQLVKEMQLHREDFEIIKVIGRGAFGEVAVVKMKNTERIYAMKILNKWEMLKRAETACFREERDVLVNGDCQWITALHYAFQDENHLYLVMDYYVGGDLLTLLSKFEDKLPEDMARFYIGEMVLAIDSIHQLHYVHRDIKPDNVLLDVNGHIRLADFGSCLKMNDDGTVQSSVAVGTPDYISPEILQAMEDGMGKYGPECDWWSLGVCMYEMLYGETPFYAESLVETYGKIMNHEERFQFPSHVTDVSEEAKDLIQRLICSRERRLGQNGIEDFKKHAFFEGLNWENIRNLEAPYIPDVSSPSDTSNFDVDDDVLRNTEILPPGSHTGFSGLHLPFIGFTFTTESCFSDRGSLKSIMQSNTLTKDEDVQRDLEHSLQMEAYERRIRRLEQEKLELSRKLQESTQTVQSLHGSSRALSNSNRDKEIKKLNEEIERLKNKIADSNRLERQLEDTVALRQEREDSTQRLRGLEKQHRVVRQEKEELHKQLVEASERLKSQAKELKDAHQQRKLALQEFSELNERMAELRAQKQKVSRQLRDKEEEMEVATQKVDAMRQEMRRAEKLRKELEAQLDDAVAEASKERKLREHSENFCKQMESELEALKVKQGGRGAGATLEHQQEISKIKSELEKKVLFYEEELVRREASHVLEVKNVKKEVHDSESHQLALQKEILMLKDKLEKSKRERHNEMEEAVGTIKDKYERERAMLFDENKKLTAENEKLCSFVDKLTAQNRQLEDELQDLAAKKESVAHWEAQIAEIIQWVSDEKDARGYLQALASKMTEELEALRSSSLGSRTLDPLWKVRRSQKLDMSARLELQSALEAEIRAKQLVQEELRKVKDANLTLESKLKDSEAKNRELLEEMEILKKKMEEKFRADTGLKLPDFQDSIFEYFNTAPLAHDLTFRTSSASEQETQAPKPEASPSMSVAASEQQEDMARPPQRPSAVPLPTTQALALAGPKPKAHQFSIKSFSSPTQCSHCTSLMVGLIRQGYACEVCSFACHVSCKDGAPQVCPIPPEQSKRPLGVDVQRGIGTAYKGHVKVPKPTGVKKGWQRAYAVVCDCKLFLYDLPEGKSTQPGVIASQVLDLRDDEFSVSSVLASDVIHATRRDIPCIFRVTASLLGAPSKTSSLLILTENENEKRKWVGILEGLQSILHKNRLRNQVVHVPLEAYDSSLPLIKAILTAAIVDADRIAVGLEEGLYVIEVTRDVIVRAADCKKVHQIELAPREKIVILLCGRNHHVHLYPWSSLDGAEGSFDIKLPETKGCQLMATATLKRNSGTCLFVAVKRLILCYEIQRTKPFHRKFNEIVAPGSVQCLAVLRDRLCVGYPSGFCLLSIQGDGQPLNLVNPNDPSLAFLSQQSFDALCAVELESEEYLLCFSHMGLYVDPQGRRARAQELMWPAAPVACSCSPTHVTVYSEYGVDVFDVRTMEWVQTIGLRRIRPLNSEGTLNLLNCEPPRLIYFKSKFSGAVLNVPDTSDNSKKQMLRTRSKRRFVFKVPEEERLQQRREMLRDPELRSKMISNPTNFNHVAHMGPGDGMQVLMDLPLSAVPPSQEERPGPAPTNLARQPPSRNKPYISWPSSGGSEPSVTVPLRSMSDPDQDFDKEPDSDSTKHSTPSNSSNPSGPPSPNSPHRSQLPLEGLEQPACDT
Procedure: as §2, §3, §4

[2] = test system: FAK1, MLC and Paxillin phosphorylation; FAK1 and CHEK1 protein levels; test: Western blot of signaling in inhibitor-treated HGSOC cells; assay type: cell-based, human; settings: HGSOC cells, 0.5, 1 or 3 μM, 48 hours
Procedure: COV362 cells were treated with 0.5, 1 or 3 μM of A-674563 or SB-772077 for 48 hours and signaling monitored by western blot.
Samples were harvested in MIB lysis buffer, subjected to SDS-PAGE […] and transferred to PVDF membranes before western blotting with primary antibodies. For pMYPT and pMLC blots, cells were harvested in a buffer containing 1% (w/v) SDS, 50 mM Tris pH 7.5 supplemented with protease and phosphatase inhibitors buffer and were passed through QIAshredder columns (Qiagen, 79654), (Unbekandt et al., Cell Commun. Signal., 2014, 12, 54). For the list of primary antibodies used, see Table 4. Secondary HRP-anti-rabbit and HRP-anti-mouse were obtained from ThermoFisher Scientific. SuperSignal West Pico and Femto Chemiluminescent Substrates (Thermo) were used to visualize blots.

MRCKA [3] = target: T2, MRCKA; settings: Unbekandt et al., 2014; cited from earlier work
HGSOC cells = test: Cell viability of HGSOC cell line panel (Cell Titer Glo); assay type: cell-based, human
Procedure: Cells were treated with increasing concentrations of PF-03758309 and cell viability assessed by Cell Titer Glo according to manufacturer's instructions. Data represent the mean of six replicates.
Cell viability was assessed by Cell Titer Glo according to manufacturing. Data represent the mean of six replicates.
For short-term growth assays, 3000-5000 cells were plated per well in 96-well plates and allowed to adhere and equilibrate overnight. Drug was added the following morning and after 120 hours of drug treatment, cell viability was assessed using the CellTiter-Glo Luminescent cell viability assay according to manufacturer (Promega). Students t tests were performed for statistical analyses and p values ≤0.05 were considered significant. For colony formation assays, cells were plated in 24-well dishes (3000-5000 cells per well) and incubated overnight before continuous drug treatment for 14 days, with drug and media replaced twice weekly. At the end of treatment, cells were rinsed with PBS and fixed with chilled methanol for 10 minutes at −20° C. Methanol was removed by aspiration, and cells were stained with 0.5% crystal violet in 20% methanol for 20 minutes at room temperature, washed with distilled water, and scanned.

[4] = cell lysates incubated with increasing doses for 30 minutes

T1 sequence (Q96GD4 whole entry): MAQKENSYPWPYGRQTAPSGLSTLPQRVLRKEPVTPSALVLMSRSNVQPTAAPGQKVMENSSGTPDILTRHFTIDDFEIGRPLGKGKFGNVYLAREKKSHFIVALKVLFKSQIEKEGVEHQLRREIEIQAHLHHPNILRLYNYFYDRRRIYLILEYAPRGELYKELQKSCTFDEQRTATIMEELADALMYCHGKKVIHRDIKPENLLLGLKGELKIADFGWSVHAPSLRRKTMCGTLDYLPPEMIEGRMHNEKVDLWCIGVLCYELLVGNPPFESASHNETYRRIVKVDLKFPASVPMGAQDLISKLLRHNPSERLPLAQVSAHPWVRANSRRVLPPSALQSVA

elution of AURKB from MIB beads (western blot) (AURKB; [4]): elute AURKB
off-target activity on AURKB in HGSOC cells (AURKB; doses <5 μM): off-targets
activity against primary target MRCKA in HGSOC cells (MRCKA [1]): little activity
elution of MRCKB from MIB beads (western blot) (MRCKB; [4]): not MRCKB
activity against primary target MRCKB in HGSOC cells (MRCKB; doses <5 μM): little activity
SMILES: O=C(Nc1cn[nH]c1-c1ccccn1)c1nn(C2CCNCC2)cc1Cl [BDP5290]
pMLC, pMYPT1, pFAK or total FAK1 or CHEK1 levels [2]: did not reduce
Ki (MRCKA [3]): 0.01 µM
potency in HGSOC cells (HGSOC cells; doses <5 μM): minimal potency
cell viability of HGSOC cells (HGSOC cells; increasing concentrations, Cell Titer Glo): inhibiting HGSOC cell viability at higher concentrations; also recorded: minimal effects
